Measured values reported in patent publication US20090291883A1, “COMBINATION OF AN IMMUNOSUPPRESSIVE AGENT AND NONSTEROIDAL ANTI -INFLAMMATORY DRUGS TO TREAT DISEASE” (BOSTON MEDICAL CENTER CORPORATION, priority 2006, published 2009).

Assays:
colorectal cancer = conditions: chronic aspirin use; cited from earlier work
sporadic colonic polyps = conditions: cited from earlier work; for regression of adenomatous polyps, small pilot study: sporadic colonic polyps
[1] = tested on: villous adenomas of the cecum; conditions: 30 mg weekly, for up to 20 months; cited from earlier work
[2] = tested on: skin graft from donor B6 black mice; test: Skin graft from donor B6 black mice transplanted to recipient BALB/c mice: graft rejection/survival; assay type: in vivo
Method: (§1) Skin from donor B6 black mice was transplanted to recipient white BALB/c mice. […] To determine the effects of these agents on secondary tumor development, BALB/c mice were also injected subcutaneously with MC-26 colorectal cancer cells and were treated for 22 days with the above regimens. A second control group included mice that were not injected with tumor cells and received no treatment.
(§2) The inventors subcutaneously injected 2×10^4 MC-26 cells (mouse colorectal adenocarcinoma cell line) into the flanks of 6-8 week old BALB/c mice. Tumor volume was measured at regular intervals during a period of 22 days. […] Skin xenografts from donor black B6 mice were simultaneously transplanted to the backs of the mice.

[3] = tested on: MC-26 colorectal cancer cells; test: Subcutaneous MC-26 colorectal cancer tumor growth in BALB/c mice; assay type: in vivo
Method: (§3) A second control group included mice that were not injected with tumor cells and received no treatment.
as §1, §2

[4] = Body weight change of MC-26 tumor-bearing BALB/c mice, day 0 to day 22; assay type: in vivo; conditions: compared with mice not injected with tumor cells and untreated
Method: as §3, §1

colonic polyps = conditions: daily dose of 300 mg, taken systemically; cited from earlier work
[5] = given orally as a tablet; cited from earlier work
[6] = tested on: HT-29 colon adenocarcinoma cell line; conditions: following sulindac administration; cited from earlier work
flat colorectal mucosa = conditions: after treatment with sulindac, FAP subjects; cited from earlier work

**Q.** For CC(=O)Oc1ccccc1C(=O)O [aspirin], which “reduction in the incidence of colorectal cancer” value (colorectal cancer) is on record?
**A.** Its value is 50-70%.

**Q.** With CN1C(C(=O)Nc2ccccn2)=C(O)c2ccccc2S1(=O)=O [piroxicam] as the compound, how does the “regression of adenomatous polyps, small pilot study” value (sporadic colonic polyps) read?
**A.** The value was “no similar regression”.

**Q.** And the “regression of pre-malignant adenomas” value [1]?
**A.** Its value is “dramatic and sustained regression”.

**Q.** Which results are given for CS(=O)(=O)c1ccc(C2=C(c3ccccc3)C(=O)OC2)cc1 [rofecoxib]?
**A.** skin graft rejection (FIG. 3) ([2]; Example 2, 22 days, cyclosporine 20 mg/kg, rofecoxib chow equivalent to a human dose of 25 mg per day): rejected the skin graft; skin graft survival at day 15 ([2]; Example 3, day 15, cyclosporine 20 mg/kg, rofecoxib chow 0.01%, control group 0%): 0%; time by which the skin graft had failed ([2]; Example 3, rofecoxib chow 0.01%): ≤ 11 days; tumor growth / tumor size (FIG. 1) ([3]; Example 1, treated for 22 days, rofecoxib chow equivalent to a human dose of 25 mg per day): significantly smaller; tumor growth / tumor size (FIG. 4) ([3]; Example 2, treated for 22 days, cyclosporine 20 mg/kg, rofecoxib chow equivalent to a human dose of 25 mg per day): significantly smaller; tumor volume (TV) ([3]; Example 3, 2×10^4 MC-26 cells s.c. in flank, 22 days, rofecoxib chow 0.01%, cyclosporine 20 mg/kg, skin graft transplanted simultaneously, control chow 920.81±511.10): 394.75±273.37 mm^3; tumor volume / tumor growth compared with control chow ([3]; Example 3, 22 days): markedly reduced; growth and body weight gain (FIG. 2) ([4]; Example 1, day 0 to day 22): continued to grow and gained weight similarly to the control group; growth and body weight gain ([4]; Example 2, 22 days): continued to grow and gained weight similarly to the control group

**Q.** For CC1=C(CC(=O)O)c2cc(F)ccc2/C1=C\c1ccc([S+](C)[O-])cc1 (stereo not drawn) [sulindac], which “number and size of colonic polyps” value (colonic polyps) is on record?
**A.** Its value is “significantly decreased”.

**Q.** And the “regression / progression of sporadic colorectal adenomas, multicenter study” value (sporadic colonic polyps; 300 mg daily or 150 mg daily for one year, regardless of dose, nearly 100 subjects)?
**A.** Its value is “induced regressions and prevented the progression”.

**Q.** And the “regression of adenomatous polyps, small pilot study” value (sporadic colonic polyps)?
**A.** The value was “no similar regression”.

**Q.** And the “time to peak plasma concentration after dosing” value [5]?
**A.** The value was “about two”.

**Q.** What about the “apoptosis in HT-29 cells” value [6] of the same compound?
**A.** Its value is “induction of apoptosis”.

**Q.** What about the colonic mucosal apoptosis (flat colorectal mucosa) of the same compound?
**A.** Its colonic mucosal apoptosis is “increased levels”.
